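Grown in 96-well plates, cells were treated for 48 hours with each compound at five concentrations. Insufficient inhibition: endpoint recorded as highest concentration tested. The concentration for full growth arrest is given as TGI.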
Legend:
Test in all cases: NCI anticancer screen, dose series, 48 h
SNB-75 CNS = tested on: SNB-75 CNS
RXF 393 renal = tested on: RXF 393 renal
CCRF-CEM leukemia = tested on: CCRF-CEM leukemia
NCI/ADR-RES ovarian = tested on: NCI/ADR-RES ovarian
SK-MEL-5 melanoma = tested on: SK-MEL-5 melanoma
TK-10 renal = tested on: TK-10 renal
BT-549 breast = tested on: BT-549 breast
HS 578T breast = tested on: HS 578T breast
786-0 renal = tested on: 786-0 renal
SNB-19 CNS = tested on: SNB-19 CNS

Measured: TGI

COc1cc2cc(C(=O)N3CC(COS(C)(=O)=O)c4ccc(NC(=O)OCc5ccccc5)cc43)[nH]c2c(OC)c1OC (stereo not given)
> 100 µM: all assays above

Source: PubChem BioAssay (NCI)
